Data from US7160700B2, “Glycosyltransferase genes” (International Flower Developments Proprietary Limited, priority 2000, dated 2007).

How the values were obtained:
[1] = biological target: T1, protein which has activity to transfer a glycosyl group to the 3′-position of anthocyanins (Gentiana triflora, UniProt Q8H0F2); experiment: Enzyme activity of extract from yeast transformed with pYG3′GT7 (measured as in Example 1, HPLC); format: biochemical, gentian; conditions: compound used as substrate
T1 construct: A DNA fragment of approximately 1.6 kbp, which was obtained by digestion of pG3′GT7 with XhoI, was recovered; made in house; extract after glass-bead disruption
T1 sequence (Q8H0F2 1-482): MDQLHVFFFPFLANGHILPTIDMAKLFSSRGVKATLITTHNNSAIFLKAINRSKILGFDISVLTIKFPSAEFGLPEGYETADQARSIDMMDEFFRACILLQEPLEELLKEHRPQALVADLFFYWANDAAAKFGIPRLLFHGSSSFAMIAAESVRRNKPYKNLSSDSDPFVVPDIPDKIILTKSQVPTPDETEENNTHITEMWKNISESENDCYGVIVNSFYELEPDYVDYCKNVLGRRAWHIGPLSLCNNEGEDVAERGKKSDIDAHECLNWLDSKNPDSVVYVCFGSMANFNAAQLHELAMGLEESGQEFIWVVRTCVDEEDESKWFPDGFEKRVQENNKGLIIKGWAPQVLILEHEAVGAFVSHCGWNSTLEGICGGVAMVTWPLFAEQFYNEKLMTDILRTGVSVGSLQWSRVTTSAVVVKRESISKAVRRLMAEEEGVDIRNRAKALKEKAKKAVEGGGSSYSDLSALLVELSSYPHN
Procedure: (§1) 20 μl of the crude enzyme extract solution, 10 μl of 0.5M potassium phosphate (pH 8.5), 10 μl of 5 mM UDP-glucose, 10 μl of delphinidin 3,5-diglucoside (1.5 mg/ml) were mixed and maintained at 30° C. for 10 minutes. Then, following the procedure of Fujiwara et al. (Fujiwara et al. Plant J. (1998)), reaction was terminated, and the reaction product was analyzed using high performance liquid chromatography (HPLC). As a result, it was determined that gentian flower petals contain an enzyme having activity to transfer a glycosyl group to the 3′-position of an anthocyanin.
A DNA fragment of approximately 1.6 kbp, which was obtained by digestion of pG3′GT7 with XhoI, was recovered. This DNA was ligated to a DNA fragment obtained by digesting pYE22m with SaII, and the obtained plasmid that has the initiation codon nearer to the promotor on pYE22m was denoted by pYG3′GT7. pYE22m was constructed according to the method as set forth in Japanese Patent Publication No. 4-228078. This plasmid was introduced into yeast cells to obtain transformed yeast cells. After the yeast cells were cultured and disrupted with glass beads, enzyme activity was measured as in Example 1 using delphinidin 3,5-diglucoside as substrate.
No activity was found in the yeast in which the plasmid was not introduced. When cyanidin 3,5-diglucoside was used as substrate, no new peak was produced.

[2] = biological target: T2, 3′GT (Gentiana triflora, UniProt Q8H0F2); experiment: Analysis of substrate specificity of purified 3′GT expressed in Escherichia coli (glucose transfer from UDP-glucose, HPLC); format: biochemical, gentian; conditions: compound used as substrate; for 3′GT activity to substrate (qualitative): purified sample of 3′GT from E. coli; for relative activity: activity to delphinidin 3,5-glucoside assumed to be 100%
T2 construct: the region from the initiation methionine to poly A of pG3′GT7 was inserted in the NcoI/KpnI site of E. coli expression vector pQE61; made in house; host or cells: Escherichia coli JM105 (vector pQE61, plasmid pG3′Q1)
T2 sequence (Q8H0F2 1-482): T1 sequence (Q8H0F2 1-482)
Procedure: as §1
Using the PCR method, an NcoI site was introduced so as to coincide with the initiation methionine codon of pG3′GT7, and the region from the initiation methionine to poly A of pG3′GT7 was inserted in the NcoI/KpnI site of E. coli expression vector pQE61 (QIAGEN). The obtained E. coli expression vector was denoted by pG3′Q1. pG3′Q1 was introduced into the Escherichia coli JM105 strain, and after preculturing overnight at 37° C., a part of the precultured medium was innoculated into 8 L of a main culture medium, and was cultured at 27° C. until OD600=0.6. To induce expression of the 3′GT gene, IPTG was added so as to reach a final concentration of 0.4 mM, and was cultured overnight at 27° C. After cells were collected, washed, and suspended in 400 ml of crushing buffer (25 mM Tris-HCl (pH 7.5), 250 mM NaCl, 1 mM EDTA, 0.5% β-mercaptoethanol), the cells were disrupted by ultrasonic treatment. After centrifuging, the resultant supernatant was subjected to processing with DE52, and a 40–70% ammonium sulfate precipitate fraction was recovered. After desalting, the crude protein solution was loaded onto a DEAE-TOYOPEARL (Toso Co.) preequilibrated with buffer C (25 mM Tris-HCl (pH 7.5), 0.5% β-mercaptoethanol), and was eluted with buffer C containing 0–0.5 M NaCl. The active fraction was recovered, adsorbed to BlueA (Amicon Co.) equilibrated buffer C, and was eluted with a linear gradient formed with the buffer C and the buffer C containing 2 M NaCl. The obtained active fraction was used in the reaction, to be described later, as a purified sample of the 3′GT portion.
Using the purified sample of the 3′GT portion obtained in Example 6, the substrate-specificity of the 3′GT was analyzed. […] Assuming the relative activity to delphinidin 3,5-glucoside to be 100%, the activity to delphinidin 3-glucosyl-5-caffeoylglucoside is about 50%. Trace amount of products (1% or less) were also observed using delphinidin or delphinidin 3-diglucoside as a substrate. From retention time of HPLC and the absorption spectrum, the reaction product is considered to be a substrate having a glycosyl group added to the 3′-position thereof.

OC[C@H]1O[C@@H](Oc2cc3c(O[C@@H]4O[C@H](CO)[C@@H](O)[C@H](O)[C@H]4O)cc(O)cc3[o+]c2-c2ccc(O)c(O)c2)[C@H](O)[C@@H](O)[C@@H]1O [cyanidin 3,5-diglucoside]
activity for adding a glycosyl group to substrate (qualitative) [1]: exhibits no activity | 3′GT activity to substrate (qualitative) [2]: not

OC[C@H]1O[C@@H](Oc2cc3c(O[C@@H]4O[C@H](CO)[C@@H](O)[C@H](O)[C@H]4O)cc(O)cc3[o+]c2-c2cc(O)c(O)c(O)c2)[C@H](O)[C@@H](O)[C@@H]1O [delphinidin 3,5-diglucoside]
activity for adding a glycosyl group to substrate (qualitative) [1]: exhibits activity | relative activity [2]: 100% | 3′GT activity to substrate (qualitative) [2]: exhibits activity

delphinidin 3-glucosyl-5-caffeoylglucoside
relative activity [2]: about 50% | 3′GT activity to substrate (qualitative) [2]: exhibits activity
